Measured values reported in patent US7037919B1, “Tetrahydroquinoline derivatives” (Kaken Pharmaceutical Co. Ltd., priority 1999, dated 2006).

Legend:
[1] = system: orchiectomized (ORX) rats; experiment: Action of increasing prostate weight in orchiectomized (ORX) rats (Test Example 3); assay type: in vivo, rat; conditions: 30 mg/kg s.c. once daily for 8 days, ORX SD rats, Mean ± SD
Method: Action of Increasing Prostate Weight in Rats After Orchiectomized (ORX) Rats
Orchiectomy was performed in 8-week-old male SD rats. From 5 days postoperation, the compound of the present invention (Example 60, 30 mg/kg), dissolved in a 5% dimethyl sulfoxide-containing olive oil solution, was subcutaneously injected once daily for 8 days. On the next day after final administration, the wet weight of the ventral prostate was measured to evaluate the AR agonistic effect of the compound of the present invention.

[2] = target: T1, Rat androgen receptors (rat AR) (Rattus norvegicus, UniProt P15207); experiment: Test for competitive binding to rat androgen receptors; conditions: 3H-testosterone, rat prostate AR fraction; hydroxyflutamide taken as 100
T1 construct: from tissue; host or cells: prostate of orchiectomized male SD rats (100,000 x g supernatant)
T1 sequence (P15207 1-902): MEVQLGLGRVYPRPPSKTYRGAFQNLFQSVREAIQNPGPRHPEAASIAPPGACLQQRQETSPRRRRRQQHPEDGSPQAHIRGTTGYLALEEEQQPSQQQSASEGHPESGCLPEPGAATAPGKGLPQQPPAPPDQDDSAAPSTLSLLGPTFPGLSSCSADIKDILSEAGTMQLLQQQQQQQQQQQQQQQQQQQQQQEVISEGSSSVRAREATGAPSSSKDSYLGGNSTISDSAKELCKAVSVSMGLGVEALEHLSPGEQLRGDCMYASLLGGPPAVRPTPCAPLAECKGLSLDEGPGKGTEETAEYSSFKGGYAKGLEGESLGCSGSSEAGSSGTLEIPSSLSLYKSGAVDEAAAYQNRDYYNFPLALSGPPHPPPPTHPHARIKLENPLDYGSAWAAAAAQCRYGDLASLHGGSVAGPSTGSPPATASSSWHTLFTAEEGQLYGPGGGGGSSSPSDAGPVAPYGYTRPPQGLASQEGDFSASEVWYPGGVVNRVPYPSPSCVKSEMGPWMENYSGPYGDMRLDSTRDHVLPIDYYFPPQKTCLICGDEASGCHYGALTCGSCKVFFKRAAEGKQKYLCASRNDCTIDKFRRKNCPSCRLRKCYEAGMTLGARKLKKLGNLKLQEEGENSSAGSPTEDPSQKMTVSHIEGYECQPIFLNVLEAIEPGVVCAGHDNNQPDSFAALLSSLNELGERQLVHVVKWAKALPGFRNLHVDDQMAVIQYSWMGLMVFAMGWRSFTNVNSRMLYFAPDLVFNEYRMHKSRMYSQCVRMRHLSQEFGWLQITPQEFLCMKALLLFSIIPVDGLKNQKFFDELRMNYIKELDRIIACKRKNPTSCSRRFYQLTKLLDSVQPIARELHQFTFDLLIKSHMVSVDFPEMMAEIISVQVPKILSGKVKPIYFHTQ
Method: Test for Competitive Binding to Rat Androgen Receptors (Rat AR)
Preparation of rat AR fraction: Prostates were harvested into ice-cooled ET buffer (10 mM Tris, 1 mM EDTA, 5 mM DTT, 10 mM sodium molybdate, pH 7.4) 3 days after orchiectomy in 11-week-old male SD rats. The prostate was finely cut, and ET buffer was added, whereafter the mixture was homogenized using a homogenizer. The homogenate was ultracentrifuged (100,000×g, 60 min, 4° C.), and the supernatant was used as a rat AR fraction (hereinafter referred to as ARF).
Binding test: ^3H-testosterone (hereinafter referred to as ^3H-T) was diluted with ET buffer. Dihydrotestosterone (DHT) was prepared so as to have a concentration (final concentration 1 μM) 400 times the maximum concentration of ^3H-T (2.5 nM). The ^3H-T solution was added to a 1.5 ml tube containing DHT, no DHT, or the test compound with a varying concentration. Further, 200 μg ARF was added to adjust the final volume to 100 μl. The mixture was incubated for 2 hours at 4° C., and then 300 μl of a 0.05% dextran T70-1.0% activated carbon solution was added. The mixture was further incubated for 15 minutes in ice to remove the free ^3H-T. After centrifugation (4° C., 2,500 rpm, 5 min), 275 μl of the supernatant was harvested into a liquid scintillation vial, and 2 ml of clear-sol was added. The mixture was stirred, allowed to stand, and measured for ^3H radioactivity with a liquid scintillation counter.
Calculation of the relative binding inhibition rate: The binding inhibition rate (%) of the compound according to the present invention was calculated from the following equation, and the 50% inhibition concentration (IC50) was calculated by the probit analysis of the concentration-binding inhibition curve.
The relative binding inhibition rate (RBA: Relative Binding Affinity) was obtained from the following equation (Endocrinology 138, 863-870, 1997): RBA=100×(IC50 of hydroxyflutamide)/(IC50 of the compound of the present invention) • RBA's of the compounds of the present invention, calculated as above, are shown in Table 10.

[3] = system: orchiectomized (ORX) rats; experiment: Action of increasing prostate weight and bone mineral density in orchiectomized (ORX) rats (Test Example 4); assay type: in vivo, rat; conditions: 60 mg/kg s.c. once daily, 5 days weekly, 4 weeks, ORX SD rats, Mean ± SD; for Bone mineral density: right femur
Method: Action of Increasing Prostate Weight and Bone Mineral Density in Orchiectomized (ORX) Rats
Orchiectomy was performed in 12-week-old male SD rats. From the next day postoperation, the positive control compound dihydrotestosterone (DHT, 10 mg/kg) and the compound of the present invention (Example 60, 60 mg/kg), each dissolved in a 5% dimethyl sulfoxide-containing olive oil solution, were subcutaneously injected once daily, 5 days weekly, for 4 weeks. On the next day after final administration, the wet weight of the ventral prostate was measured to evaluate the AR agonistic effect of the compound of the present invention. On the next day following final administration, moreover, the right femur was removed, and fixed overnight in a 10% neutrally buffered formalin solution. Then, the bone mineral density at the site ranging from the diaphysis to the proximal end was measured by the method of double energy X-ray absorption using a bone mineral content-measuring machine (Aloka, DCS-600) to evaluate increasing action of bone mineral density of the compound of the present invention.

AR = experiment: Assignment of compounds as having AR agonistic or AR antagonistic action (description, no method given); conditions: compounds named as usable for category A diseases
orchiectomized rats = experiment: Inhibitory action on testosterone-induced prostate weight increase in orchiectomized rats (Test Example 5); assay type: in vivo, rat; conditions: TP 1 mg/kg s.c. alone, once daily for one week, orchiectomized SD rats, Mean ± SD
Method: Inhibitory Action on Testosterone-induced Prostate Weight Increase in Orchiectomized Rats
Testes were removed from 8-week-old male SD rats. From 5 days postoperation, 1 mg/kg of testosterone propionate (hereinafter referred to as TP) and 30 mg/kg of the compound of the present invention were simultaneously injected once daily for one consecutive week. The compound of the present invention was suspended in a 0.5% methyl cellulose solution, while TP was dissolved in cottonseed oil containing 5% ethanol. Each of the test compounds was subcutaneously administered. On the next day after final administration, the wet weight of the ventral prostate was measured to evaluate the AR antagonistic effect of the compound of the present invention on TP-induced prostate weight increase.

| Structure (SMILES) | Weight of prostate [1] | RBA (Relative Binding Affinity = 100 x IC50 of hydroxyflutamide / IC50 of the compound) [2] | Prostate weight [3] | Prostate weight ([3]; listed as Ex. 60) [mg/body weight 100 g] | Bone mineral density ([3]; 60 mg/kg) | Bone mineral density ([3]; listed as Ex. 60, 60 mg/kg) [mg/cm^2] | AR agonistic action (AR) | Prostate weight (orchiectomized rats) [mg/body weight 100 g] |
| --- | --- | --- | --- | --- | --- | --- | --- | --- |
| CCS(=O)(=O)NCC(C)(C)C1Nc2ccc([N+](=O)[O-])cc2C2C=CCC21 (centres unmarked) [Example 60] | significantly increased the prostate weights | 814 | significant increases in the prostate weights | 56 ± 13 | significantly increased the bone mineral density | 132 ± 7 | AR agonistic action | – |
| CCC(=O)O[C@H]1CC[C@H]2[C@@H]3CCC4=CC(=O)CC[C@]4(C)[C@H]3CC[C@]12C [TP, testosterone propionate] | – | – | – | – | – | – | – | 80.4 ± 13.7 |
